The NIST ThermoML archive (doi:10.1021/je400423u)

Assay: xn = mol fraction of the nth substance listed
Details: 101 kPa, Liquid; for viscosity: Falling or rolling sphere viscometry; for mass density: Vibrating tube method

CC(C)(C)O [2-methylpropan-2-ol] + CCC(C)O
Details | mass density, 308.15 K [kg/m3] | mass density, 313.15 K [kg/m3] | mass density, 318.15 K [kg/m3] | mass density, 323.15 K [kg/m3] | viscosity, 308.15 K [mPa·s] | viscosity, 313.15 K [mPa·s] | viscosity, 318.15 K [mPa·s] | viscosity, 323.15 K [mPa·s]
x2 = 0 | 770.36 | 765.07 | 759.67 | 754.19 | 2.589 | 2.089 | 1.69 | 1.409
x2 = 0.1002 | 772.862 | 767.728 | 762.547 | 757.329 | 2.511 | 2.032 | 1.671 | 1.393
x2 = 0.2001 | 775.563 | 770.539 | 765.501 | 760.468 | 2.462 | 2.001 | 1.651 | 1.382
x2 = 0.3008 | 778.356 | 773.423 | 768.478 | 763.574 | 2.414 | 1.97 | 1.632 | 1.371
x2 = 0.3999 | 781.092 | 776.226 | 771.356 | 766.546 | 2.368 | 1.941 | 1.613 | 1.36
x2 = 0.5005 | 783.761 | 778.999 | 774.194 | 769.452 | 2.322 | 1.912 | 1.596 | 1.351
x2 = 0.6004 | 786.229 | 781.558 | 776.85 | 772.176 | 2.278 | 1.886 | 1.581 | 1.343
x2 = 0.6999 | 788.492 | 783.915 | 779.306 | 774.689 | 2.237 | 1.863 | 1.569 | 1.338
x2 = 0.8009 | 790.567 | 786.091 | 781.558 | – | 2.199 | 1.843 | 1.56 | 1.334
x2 = 0.8998 | 792.397 | 787.978 | 783.501 | – | 2.168 | 1.828 | 1.554 | 1.333
